Where a name gives a salt, the structure may show the parent alone.
What was measured:
[1] = target: T1, indoleamine 2, 3-dioxygenase (IDO1) (Homo sapiens, UniProt P14902); assay: PBMC IDOi assay (kynurenine detection by mass spectrometry); format: cell-based; conditions: IFN-γ and LPS stimulated human PBMC, 2 days
Protocol: (§1) Compounds of the present invention were tested via high-throughput cellular assays utilizing detection of kynurenine via mass spectrometry and cytotoxicity as end-points. For the mass spectrometry and cytotoxicity assays, human peripheral blood mononuclear cells (PBMC) (PB003F; AllCells®, Alameda, Calif.) were stimulated with human interferon-γ (IFN-γ) (Sigma-Aldrich Corporation, St. Louis, Mo.) and lipopolysaccharide from Salmonella minnesota (LPS) (Invivogen, San Diego, Calif.) to induce the expression of indoleamine 2, 3-dioxygenase (IDO1). Compounds with IDO1 inhibitory properties decreased the amount of kynurenine produced by the cells via the tryptophan catabolic pathway. Cellular toxicity due to the effect of compound treatment was measured using CellTiter-Glo® reagent (CTG) (Promega Corporation, Madison, Wis.), which is based on luminescent detection of ATP, an indicator of metabolically active cells.
(§2) In preparation for the assays, test compounds were serially diluted 3-fold in DMSO from a typical top concentration of 5 mM and plated at 0.5 μL in 384-well, polystyrene, clear bottom, tissue culture treated plates with lids (Greiner Bio-One, Kremsmünster, Austria) to generate 11-point dose response curves. Low control wells (0% kynurenine or 100% cytotoxicity) contained either 0.5 μL of DMSO in the presence of unstimulated (−IFN-γ/−LPS) PBMCs for the mass spectrometry assay or 0.5 μL of DMSO in the absence of cells for the cytotoxicity assay, and high control wells (100% kynurenine or 0% cytotoxicity) contained 0.5 μL of DMSO in the presence of stimulated (+IFN-γ/+LPS) PBMCs for both the mass spectrometry and cytotoxicity assays.
Frozen stocks of PBMCs were washed and recovered in RPMI 1640 medium (Thermo Fisher Scientific, Inc., Waltham, Mass.) supplemented with 10% v/v heat-inactivated fetal bovine serum (FBS) (Thermo Fisher Scientific, Inc., Waltham, Mass.), and 1× penicillin-streptomycin antibiotic solution (Thermo Fisher Scientific, Inc., Waltham, Mass.). The cells were diluted to 1,000,000 cells/mL in the supplemented RPMI 1640 medium. 50 μL of either the cell suspension, for the mass spectrometry assay, or medium alone, for the cytotoxicity assay, were added to the low control wells, on the previously prepared 384-well compound plates, resulting in 50,000 cells/well or 0 cells/well respectively. IFN-γ and LPS were added to the remaining cell suspension at final concentrations of 100 ng/ml and 50 ng/ml respectively, and 50 μL of the stimulated cells were added to all remaining wells on the 384-well compound plates. The plates, with lids, were then placed in a 37° C., 5% CO2 humidified incubator for 2 days.
(§3) Following incubation, the 384-well plates were removed from the incubator and allowed to equilibrate to room temperature for 30 minutes. For the cytotoxicity assay, CellTiter-Glo® was prepared according to the manufacturer's instructions, and 40 μL were added to each plate well. After a twenty minute incubation at room temperature, luminescence was read on an EnVision® Multilabel Reader (PerkinElmer Inc., Waltham, Mass.). For the mass spectrometry assay, 10 μL of supernatant from each well of the compound-treated plates were added to 40 μL of acetonitrile, containing 10 μM of an internal standard for normalization, in 384-well, polypropylene, V-bottom plates (Greiner Bio-One, Kremsmünster, Austria) to extract the organic analytes. Following centrifugation at 2000 rpm for 10 minutes, 10 μL from each well of the acetonitrile extraction plates were added to 90 μL of sterile, distilled H2O in 384-well, polypropylene, V-bottom plates for analysis of kynurenine and the internal standard on the RapidFire 300 (Agilent Technologies, Santa Clara, Calif.) and 4000 QTRAP MS (SCIEX, Framingham, Mass.). MS data were integrated using Agilent Technologies' RapidFire Integrator software, and data were normalized for analysis as a ratio of kynurenine to the internal standard. […]

[2] = target: T1, indoleamine 2, 3-dioxygenase (IDO1); assay: HeLa IDOi assay (kynurenine detection by mass spectrometry); format: cell-based; design: human epithelial HeLa cells (CCL-2; host or cells: HeLa cells stimulated with human IFN-γ; conditions: IFN-γ stimulated human epithelial HeLa cells, 2 days
Protocol: as §1, with “epithelial HeLa” for “peripheral blood mononuclear”, “(CCL-2; ATCC®, Manassas, Va.)” for “(PBMC) (PB003F; AllCells®, Alameda, Calif.)”, “Mo.)” for “Mo.) and lipopolysaccharide from Salmonella minnesota (LPS) (Invivogen, San Diego, Calif.)”
as §2, with “(−IFN-γ) HeLa cells” for “(−IFN-γ/−LPS) PBMCs”, “(+IFN-γ) HeLa cells” for “(+IFN-γ/+LPS) PBMCs”
Frozen stocks of HeLa cells were washed and recovered in DMEM high glucose medium with HEPES (Thermo Fisher Scientific, Inc., Waltham, Mass.) supplemented with 10% v/v certified fetal bovine serum (FBS) (Thermo Fisher Scientific, Inc., Waltham, Mass.), and 1× penicillin-streptomycin antibiotic solution (Thermo Fisher Scientific, Inc., Waltham, Mass.). The cells were diluted to 100,000 cells/mL in the supplemented DMEM medium. 50 μL of either the cell suspension, for the mass spectrometry assay, or medium alone, for the cytotoxicity assay, were added to the low control wells, on the previously prepared 384-well compound plates, resulting in 5,000 cells/well or 0 cells/well respectively. IFN-γ was added to the remaining cell suspension at a final concentration of 10 nM, and 50 μL of the stimulated cells were added to all remaining wells on the 384-well compound plates. The plates, with lids, were then placed in a 37° C., 5% CO2 humidified incubator for 2 days.
as §3, with “instructions, and 10 μL were” for “instructions, and 40 μL were”

T1 sequence (P14902 whole entry): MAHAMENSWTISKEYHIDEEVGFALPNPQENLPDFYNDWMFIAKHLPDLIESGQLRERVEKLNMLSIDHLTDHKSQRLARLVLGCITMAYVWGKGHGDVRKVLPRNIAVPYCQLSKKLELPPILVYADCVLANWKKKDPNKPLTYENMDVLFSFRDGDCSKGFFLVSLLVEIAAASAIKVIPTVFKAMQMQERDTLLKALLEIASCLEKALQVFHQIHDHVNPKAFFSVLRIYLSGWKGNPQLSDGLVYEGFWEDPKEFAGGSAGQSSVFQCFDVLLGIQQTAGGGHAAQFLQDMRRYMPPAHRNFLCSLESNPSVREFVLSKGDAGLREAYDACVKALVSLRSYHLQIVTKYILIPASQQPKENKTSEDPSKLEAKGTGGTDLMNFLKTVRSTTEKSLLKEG

CC(C)CN(CC(C)C)c1ccc(C(C)CC(=O)O)cc1Nc1nc2ccccc2o1 (stereo not drawn) [Example 1, 3-(3-(benzo[d]oxazol-2-ylamino)-4-(diisobutylamino)phenyl)butanoic acid]
EC50 [1]: 631 nM | EC50 [2]: 398 nM

COc1nccc(Nc2cc(C(C)CC(=O)O)ccc2N(CC(C)C)CC(C)C)n1 (stereo not drawn) [Example 12, 3-(4-(diisobutylamino)-3-((2-methoxypyrimidin-4-yl)amino)phenyl)butanoic acid, 2,2,2-trifluoroacetic acid salt]
EC50 [1]: 158 nM | EC50 [2]: 126 nM

CC(C)CN(CC(C)C)c1ccc(C(C)CC(=O)O)cc1Nc1ccncc1 (stereo not drawn) [Example 18, 3-(4-(diisobutylamino)-3-(pyridin-4-ylamino)phenyl)butanoic acid]
EC50 [1]: 200 nM | EC50 [2]: 316 nM

CC(C)CN(c1ccc(C(C)CC(=O)O)cc1NC1CCCCC1)C1CCCCC1 (stereo not drawn) [Example 19, 3-(4-(cyclohexyl(isobutyl)amino)-3-(cyclohexylamino)phenyl)butanoic acid]
EC50 [1]: 50.1 nM | EC50 [2]: 100 nM

CC(C)CN(c1ccc(C(C)CC(=O)O)cc1NCc1cccs1)C1CCCCC1 (stereo not drawn) [Example 20, 3-(4-(cyclohexyl(isobutyl)amino)-3-((thiophen-2-ylmethyl)amino)phenyl)butanoic acid]
EC50 [1]: 50.1 nM | EC50 [2]: 126 nM

CC(C)CN(c1ccc(C(C)CC(=O)O)cc1NCc1nccs1)C1CCCCC1 (stereo not drawn) [Example 21, 3-(4-(cyclohexyl(isobutyl)amino)-3-((thiazol-2-ylmethyl)amino)phenyl)butanoic acid]
EC50 [1]: 251 nM | EC50 [2]: 501 nM

CC(C)CN(c1ccc(C(C)CC(=O)O)cc1NCc1cncs1)C1CCCCC1 (stereo not drawn) [Example 22, 3-(4-(cyclohexyl(isobutyl)amino)-3-((thiazol-5-ylmethyl)amino)phenyl)butanoic acid]
EC50 [1]: 100 nM | EC50 [2]: 200 nM

Cc1ccccc1CNc1cc(C(C)CC(=O)O)ccc1N(CC(C)C)C1CCCCC1 (stereo not drawn) [Example 23, 3-(4-(cyclohexyl(isobutyl)amino)-3-((2-methylbenzyl)amino)phenyl)butanoic acid]
EC50 [1]: 200 nM | EC50 [2]: 316 nM

CC(C)CN(c1ccc(C(C)CC(=O)O)cc1Nc1nc(Br)ns1)C1CCCCC1 (stereo not drawn) [Example 52, 3-(3-((3-bromo-1,2,4-thiadiazol-5-yl)amino)-4-(cyclohexyl(isobutyl)amino)phenyl)butanoic acid]
EC50 [2]: 79.4 nM

CC(C)CN(c1ccc([C@H](C)CC(=O)O)cc1NC1CCCCC1)C1CCCCC1 [Example 64, (R)-3-(4-(cyclohexyl(isobutyl)amino)-3-(cyclohexylamino)phenyl)butanoic acid]
EC50 [1]: 63.1 nM

CC(C)CN(c1ccc(C(C)CC(=O)O)cc1Nc1cccc(C(F)(F)F)c1)C1CCCCC1 (stereo not drawn) [Example 65, 3-(4-(cyclohexyl(isobutyl)amino)-3-((3-(trifluoromethyl)phenyl)amino)phenyl)butanoic acid]
EC50 [1]: 15.8 nM

CC(C)CN(c1ccc(C(C)CC(=O)O)cc1Nc1ccc(C(F)(F)F)cc1)C1CCCCC1 (stereo not drawn) [Example 66, 3-(4-(cyclohexyl(isobutyl)amino)-3-((4-(trifluoromethyl)phenyl)amino)phenyl)butanoic acid]
EC50 [1]: 1.26 nM

CC(C)CN(c1ccc(C(C)CC(=O)O)cc1Nc1ccc(C#N)cc1)C1CCCCC1 (stereo not drawn) [Example 67, 3-(3-((4-cyanophenyl)amino)-4-(cyclohexyl(isobutyl)amino)phenyl)butanoic acid]
EC50 [1]: 0.794 nM

CC(C)CN(c1ccc(C(C)CC(=O)O)cc1Nc1ccccc1)C1CCCCC1 (stereo not drawn) [Example 68, 3-(4-(cyclohexyl(isobutyl)amino)-3-(phenylamino)phenyl)butanoic acid]
EC50 [1]: 3.16 nM

CC(C)CN(c1ccc(C(C)CC(=O)O)cc1NCc1ccccc1)C1CCCCC1 (stereo not drawn) [Example 69, 3-(3-(Benzylamino)-4-(cyclohexyl(isobutyl)amino)phenyl)butanoic Acid]
EC50 [2]: 158 nM

CC(C)CN(c1ccc(C(C)CC(=O)O)cc1NC1CCOCC1)C1CCCCC1 (stereo not drawn) [Example 70, 3-(4-(Cyclohexyl(isobutyl)amino)-3-((tetrahydro-2H-pyran-4-yl)amino)phenyl)butanoic Acid]
EC50 [2]: 126 nM

CC(C)CN(c1ccc(C(C)CC(=O)O)cc1NC1=N[C@H](c2ccccc2)CO1)C1CCCCC1 (stereo partly drawn) [Example 72, 3-(4-(Cyclohexyl(isobutyl)amino)-3-(((R)-4-phenyl-4,5-dihydrooxazol-2-yl)amino)phenyl)butanoic Acid]
EC50 [2]: 316 nM

CC(C)CN(c1ccc(C(C)CC(=O)O)cc1NC1=N[C@@H](C)CS1)C1CCCCC1 (stereo partly drawn) [Example 73, 3-(4-(cyclohexyl(isobutyl)amino)-3-(((S)-4-methyl-4,5-dihydrothiazol-2-yl)amino)phenyl) butanoic acid]
EC50 [2]: 398 nM

CC(C)CN(c1ccc(C(C)CC(=O)O)cc1NC1=N[C@H](C)CS1)C1CCCCC1 (stereo partly drawn) [Example 74, 3-(4-(Cyclohexyl(isobutyl)amino)-3-(((R)-4-methyl-4,5-dihydrothiazol-2-yl)amino)phenyl)butanoic Acid]
EC50 [2]: 398 nM

— patent US10472336B2, “Modulators of indoleamine 2,3-dioxygenase” (GlaxoSmithKline Intellectual Property (No.2) Limited, priority 2015, dated 2019)
